For data set [1] the following is noted: SD rats, cited from earlier work.
Another data set addresses T1, TRKA (Homo sapiens, UniProt P04629).
T1 construct: purchased American Life Technologies PV3144
The data set can be described thus: Z'-LYTE kinase activity detection, TRKA. The data set is classed as biochemical.

The next data set concerns the target T2, TRKB (Homo sapiens, UniProt Q16620).
T2 construct: purchased American Life Technologies PV3616
The data set can be described thus: Z'-LYTE kinase activity detection, TRKB. The data set is classed as biochemical.

The target in the next data set is T3, TRKC (Homo sapiens, UniProt Q16288).
T3 construct: purchased American Life Technologies PV3617
Briefly: Z'-LYTE kinase activity detection, TRKC. The data set is classed as biochemical.

Another data set concerns the target T4, BaF3-CD74-NTRK1 (Homo sapiens, UniProt P04629).
T4 construct: fused on or other part: P04233 (HLA class II histocompatibility antigen gamma chain)
The data set can be described thus: Cell proliferation inhibition, Ba/F3-TRKs stable strain (CCK-8). The conditions noted are these: 72 hours, read-out: cell viability IC50 CD74-NTRK1. Type of data set: cell-based, mouse. From the text:
(§1) The BaF3 cells (mouse pre-B cells) used in this experiment were purchased from the Japanese Cell Bank. All of the monoclonal stable strains, BaF3-CD74-NTRK1, BaF3-ETV6-NTRK2 and BaF3-ETV6-NTRK3 were constructed by our laboratory, and were identified by experiments such as positive control, protein expression and gene sequencing.
(§2) The brief steps of stable strain construction were as follows: constructed pCDNA3.1(+) plasmid vector carrying genes such as CD74-NTRK1, ETV6-NTRK2, ETV6-NTRK3; the plasmid was electroporated into Ba/F3 cells using Amaxa® Cell Line Nucleofector® Kit V; 48 hours after electroporation, geneticin (G418) with a final concentration of 1000 μg/mL was added to screen for two weeks, and the interleukin 3 (IL3) was removed to continue screening to obtain polyclonal stable strains; and then single clones were selected by limiting dilution method; the stable strains were then identified by the positive drugs, Western Blot (WB), and gene sequencing; the correct monoclonal through identification can be used to study the cell proliferation inhibitory activity of the inhibitors.
(§3) Cell proliferation inhibitory activity study: The cells in logarithmic growth phase were seeded into 96-well plates at 8000-12000 cells/well, and the inhibitors at different concentrations of (0-10 μM) were added the next day, and the culture was continued for 72 hours; then 10 μL of Cell Counting Kit-8 Cell Counting Reagent (CCK-8 Reagent) was added to each well, and continued to incubate for 1-3 hours; then its absorbance at 450 nm and 650 nm were measured with a super microplate reader. The median inhibitory concentration (IC50) was calculated using medical graphing software (GraphPad Prism 8.0.0).

Another data set concerns the target T5, BaF3-ETV6-NTRK2 (Homo sapiens, UniProt Q16620).
T5 construct: fused on or other part: P41212 (Transcription factor ETV6)
Described as above. Type of data set: cell-based, mouse. The note with it: 72 hours, read-out: cell viability IC50 ETV6-NTRK2.
Description: as §1, §2, §3

For the next data set, the target named is T6, BaF3-ETV6-NTRK3 (Homo sapiens, UniProt Q16288).
T6 construct: fused on or other part: P41212 (Transcription factor ETV6)
Described as above. The data set is classed as cell-based, mouse. The conditions noted are these: 72 hours, read-out: cell viability IC50 ETV6-NTRK3.
Description: as §1, §2, §3

The next data set concerns the target Bcr-Abl (Homo sapiens, UniProt P00519). Briefly: Kinase selectivity, Z'-LYTE.
The next data set addresses SRC (Homo sapiens, UniProt P12931). The data set can be described thus: Kinase selectivity, Z'-LYTE.
A further data set addresses RET (Homo sapiens, UniProt P07949). The data set can be described thus: Kinase selectivity, Z'-LYTE.
Another data set concerns the target VEGFR2 (Homo sapiens, UniProt P35968). Briefly: Kinase selectivity, Z'-LYTE.
Another data set addresses Kit (Homo sapiens, UniProt P10721). Briefly: Kinase selectivity, Z'-LYTE.
In the next data set the target is PDGFRA (Homo sapiens, UniProt P16234). Briefly: Kinase selectivity, Z'-LYTE.
The target in the next data set is PDGFRB (Homo sapiens, UniProt P09619). Briefly: Kinase selectivity, Z'-LYTE.

Where two headings read alike, the source gives them in different places.

T6 sequence (Q16288 whole entry, the tested form may be a part): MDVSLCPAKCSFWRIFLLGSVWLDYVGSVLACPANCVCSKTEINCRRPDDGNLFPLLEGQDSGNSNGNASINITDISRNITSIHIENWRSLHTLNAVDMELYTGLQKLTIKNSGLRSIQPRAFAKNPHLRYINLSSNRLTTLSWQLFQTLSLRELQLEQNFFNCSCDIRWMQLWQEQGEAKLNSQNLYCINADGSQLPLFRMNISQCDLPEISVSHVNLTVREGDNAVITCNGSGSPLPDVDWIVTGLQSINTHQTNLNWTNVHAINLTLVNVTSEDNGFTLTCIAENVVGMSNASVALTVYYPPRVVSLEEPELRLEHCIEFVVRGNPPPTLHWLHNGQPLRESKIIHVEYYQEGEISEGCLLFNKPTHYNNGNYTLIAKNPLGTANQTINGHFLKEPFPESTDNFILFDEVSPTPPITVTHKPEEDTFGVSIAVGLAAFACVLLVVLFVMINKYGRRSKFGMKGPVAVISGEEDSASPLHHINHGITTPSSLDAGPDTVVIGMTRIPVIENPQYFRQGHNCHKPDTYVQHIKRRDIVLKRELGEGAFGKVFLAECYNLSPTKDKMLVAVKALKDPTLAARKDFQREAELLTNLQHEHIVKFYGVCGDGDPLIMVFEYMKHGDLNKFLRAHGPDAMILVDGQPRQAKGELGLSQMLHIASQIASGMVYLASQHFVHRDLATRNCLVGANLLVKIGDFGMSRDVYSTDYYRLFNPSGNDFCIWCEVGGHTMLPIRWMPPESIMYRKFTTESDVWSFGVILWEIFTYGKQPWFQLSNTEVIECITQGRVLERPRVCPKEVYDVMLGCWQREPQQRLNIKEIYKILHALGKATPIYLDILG
T1 sequence (P04629 33-796): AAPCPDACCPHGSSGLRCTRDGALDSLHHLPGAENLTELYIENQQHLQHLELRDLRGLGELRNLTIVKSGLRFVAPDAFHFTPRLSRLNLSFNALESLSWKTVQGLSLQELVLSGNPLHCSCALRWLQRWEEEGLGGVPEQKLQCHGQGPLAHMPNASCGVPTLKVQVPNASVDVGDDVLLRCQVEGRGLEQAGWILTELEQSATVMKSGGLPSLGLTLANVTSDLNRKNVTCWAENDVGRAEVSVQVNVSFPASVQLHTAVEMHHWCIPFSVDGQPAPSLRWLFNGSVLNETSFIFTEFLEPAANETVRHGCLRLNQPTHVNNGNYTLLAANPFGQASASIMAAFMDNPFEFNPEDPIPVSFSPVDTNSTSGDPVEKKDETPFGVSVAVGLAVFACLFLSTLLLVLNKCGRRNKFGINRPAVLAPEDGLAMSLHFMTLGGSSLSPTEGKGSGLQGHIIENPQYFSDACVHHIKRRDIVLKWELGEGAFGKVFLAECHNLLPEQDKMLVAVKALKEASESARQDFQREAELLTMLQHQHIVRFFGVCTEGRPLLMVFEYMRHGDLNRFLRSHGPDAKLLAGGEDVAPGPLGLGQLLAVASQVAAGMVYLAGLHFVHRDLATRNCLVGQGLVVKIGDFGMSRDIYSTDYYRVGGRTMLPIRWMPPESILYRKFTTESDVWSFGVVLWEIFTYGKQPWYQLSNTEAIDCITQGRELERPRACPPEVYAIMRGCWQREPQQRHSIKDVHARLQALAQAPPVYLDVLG
T4 sequence (P04629 510-796 limits assumed): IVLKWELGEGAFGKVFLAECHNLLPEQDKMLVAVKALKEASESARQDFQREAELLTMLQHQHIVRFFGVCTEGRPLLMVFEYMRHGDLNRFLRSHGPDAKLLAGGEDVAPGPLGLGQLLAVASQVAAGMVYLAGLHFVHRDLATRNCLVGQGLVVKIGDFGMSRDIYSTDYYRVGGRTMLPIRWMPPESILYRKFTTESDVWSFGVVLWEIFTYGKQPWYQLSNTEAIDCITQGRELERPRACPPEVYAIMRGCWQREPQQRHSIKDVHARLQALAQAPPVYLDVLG
T3 sequence (Q16288 32-839): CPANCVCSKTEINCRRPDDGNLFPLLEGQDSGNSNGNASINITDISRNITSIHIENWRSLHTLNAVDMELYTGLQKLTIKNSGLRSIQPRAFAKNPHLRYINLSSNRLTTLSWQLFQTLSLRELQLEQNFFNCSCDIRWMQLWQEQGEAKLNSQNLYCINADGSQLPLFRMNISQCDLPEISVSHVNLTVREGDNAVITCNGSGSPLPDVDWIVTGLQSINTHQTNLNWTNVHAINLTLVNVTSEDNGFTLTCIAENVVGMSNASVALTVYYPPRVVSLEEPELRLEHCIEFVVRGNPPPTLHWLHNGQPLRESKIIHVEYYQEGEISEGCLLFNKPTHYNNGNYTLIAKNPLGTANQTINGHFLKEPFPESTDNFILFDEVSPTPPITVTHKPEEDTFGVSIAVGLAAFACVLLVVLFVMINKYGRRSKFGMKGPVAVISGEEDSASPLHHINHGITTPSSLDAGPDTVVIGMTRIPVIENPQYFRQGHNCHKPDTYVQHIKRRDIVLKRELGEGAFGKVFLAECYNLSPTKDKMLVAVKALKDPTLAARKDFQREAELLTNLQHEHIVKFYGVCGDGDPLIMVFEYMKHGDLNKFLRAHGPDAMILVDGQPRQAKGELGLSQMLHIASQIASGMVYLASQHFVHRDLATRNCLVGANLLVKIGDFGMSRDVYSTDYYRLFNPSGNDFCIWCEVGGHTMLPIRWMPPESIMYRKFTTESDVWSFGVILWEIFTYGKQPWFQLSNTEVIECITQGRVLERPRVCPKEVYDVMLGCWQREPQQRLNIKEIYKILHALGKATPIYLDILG
T5 sequence (Q16620 538-822 limits assumed): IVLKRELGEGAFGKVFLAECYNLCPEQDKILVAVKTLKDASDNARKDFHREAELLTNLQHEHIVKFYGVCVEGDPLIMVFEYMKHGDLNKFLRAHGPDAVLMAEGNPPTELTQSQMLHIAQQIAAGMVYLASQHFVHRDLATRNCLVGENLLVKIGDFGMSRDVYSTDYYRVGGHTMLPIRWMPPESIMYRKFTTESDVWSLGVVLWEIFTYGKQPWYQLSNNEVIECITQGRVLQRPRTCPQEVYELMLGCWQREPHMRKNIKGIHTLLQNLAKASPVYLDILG
T2 sequence (Q16620 32-822): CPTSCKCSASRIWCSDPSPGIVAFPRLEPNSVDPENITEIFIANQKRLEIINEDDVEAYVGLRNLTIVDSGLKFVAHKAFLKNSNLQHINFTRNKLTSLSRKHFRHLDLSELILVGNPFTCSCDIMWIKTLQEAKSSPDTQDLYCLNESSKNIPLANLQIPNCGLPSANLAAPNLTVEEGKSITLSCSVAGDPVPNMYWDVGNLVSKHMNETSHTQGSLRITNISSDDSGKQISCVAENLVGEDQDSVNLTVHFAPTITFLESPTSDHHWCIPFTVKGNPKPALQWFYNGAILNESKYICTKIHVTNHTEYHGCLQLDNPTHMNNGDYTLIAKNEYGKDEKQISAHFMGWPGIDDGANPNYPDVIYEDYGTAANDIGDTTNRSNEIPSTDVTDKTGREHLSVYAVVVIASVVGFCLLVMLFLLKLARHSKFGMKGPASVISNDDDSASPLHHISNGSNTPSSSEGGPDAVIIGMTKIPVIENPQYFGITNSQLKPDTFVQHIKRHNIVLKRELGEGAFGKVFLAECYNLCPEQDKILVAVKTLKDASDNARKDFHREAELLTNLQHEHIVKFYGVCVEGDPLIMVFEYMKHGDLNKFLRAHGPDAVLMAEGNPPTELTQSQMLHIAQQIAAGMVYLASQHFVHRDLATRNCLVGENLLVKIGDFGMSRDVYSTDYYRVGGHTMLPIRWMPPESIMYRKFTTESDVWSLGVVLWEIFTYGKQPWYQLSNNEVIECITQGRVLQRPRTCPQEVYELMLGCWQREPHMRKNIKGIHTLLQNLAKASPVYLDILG
PDGFRB, sequence (P09619 33-1106, species assumed): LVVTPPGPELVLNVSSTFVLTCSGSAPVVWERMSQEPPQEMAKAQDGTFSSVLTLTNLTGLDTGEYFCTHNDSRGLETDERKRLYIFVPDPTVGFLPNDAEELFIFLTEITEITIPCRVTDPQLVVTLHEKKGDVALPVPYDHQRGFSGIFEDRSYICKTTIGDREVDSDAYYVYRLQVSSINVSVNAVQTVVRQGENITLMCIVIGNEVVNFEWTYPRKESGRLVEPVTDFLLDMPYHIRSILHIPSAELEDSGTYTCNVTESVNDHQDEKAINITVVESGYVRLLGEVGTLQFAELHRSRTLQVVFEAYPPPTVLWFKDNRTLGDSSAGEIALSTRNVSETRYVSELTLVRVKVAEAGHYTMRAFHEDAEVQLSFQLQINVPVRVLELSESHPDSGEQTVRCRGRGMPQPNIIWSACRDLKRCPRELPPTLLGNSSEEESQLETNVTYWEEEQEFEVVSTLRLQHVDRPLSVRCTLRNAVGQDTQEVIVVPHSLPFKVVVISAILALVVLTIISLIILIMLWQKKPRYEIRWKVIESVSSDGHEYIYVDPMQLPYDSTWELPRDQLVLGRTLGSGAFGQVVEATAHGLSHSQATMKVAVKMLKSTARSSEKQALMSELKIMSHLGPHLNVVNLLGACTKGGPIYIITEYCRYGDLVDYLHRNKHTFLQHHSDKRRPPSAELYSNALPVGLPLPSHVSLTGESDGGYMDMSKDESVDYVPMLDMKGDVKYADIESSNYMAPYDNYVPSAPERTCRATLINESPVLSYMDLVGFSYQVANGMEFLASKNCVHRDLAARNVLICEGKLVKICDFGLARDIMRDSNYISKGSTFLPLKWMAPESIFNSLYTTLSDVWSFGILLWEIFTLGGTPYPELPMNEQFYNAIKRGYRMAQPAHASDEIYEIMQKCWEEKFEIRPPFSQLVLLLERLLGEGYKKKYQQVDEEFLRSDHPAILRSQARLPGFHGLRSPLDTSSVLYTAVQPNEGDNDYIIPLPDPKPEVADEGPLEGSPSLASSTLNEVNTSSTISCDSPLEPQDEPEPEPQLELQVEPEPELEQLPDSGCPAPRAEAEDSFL
Description for Bcr-Abl: (§4) Enzymatic reaction: In a 384-well plate, added 5 μL of enzyme-substrate system [50 mM 4-hydroxyethylpiperazineethanesulfonic acid (HEPES) pH 7.5, 0.01% BRIJ-35, 10 mM of magnesium chloride (MgCl2), 1 mM of ethylene glycol bis(2-aminoethyl ether)tetraacetic acid (EGTA), 2 μM of Tyr 01 peptide substrate], transferred 5 nL of compound (concentration gradient) using an Echo520 Ultra-Micro Liquid Pipetting System. […] Shaked and mixed, then centrifuged, and reacted at 30° C. in the dark for 1.5 hours.
Description for Kit: as §4
Description for PDGFRA: as §4
Description for PDGFRB: as §4
Description for RET: as §4
Description for SRC: as §4
Description for VEGFR2: as §4

As to `Cc1c(C#Cc2cnc3cnc(-c4ccc(N)cc4)cn23)cccc1C(=O)Nc1cc(CN2CCN(C)CC2)cc(C(C)C)c1` [Compound 9o], in [1] (intravenous injection, 5 mg/kg), the “AUC (0-∞)” value was 810.45 ng·h/mL; the AUC(0-t) – broadly, exposure summed from dosing to a finite time, without extrapolation to infinity – was 804.65 ng·h/mL; the Clearance rate was 21.0085 mL/min/kg; the Cmax (usually the maximum level reached in the sampled fluid or tissue) was 1968.37 ng/mL. In data set [1] (intravenous injection, 5 mg/kg), the Tmax (as a rule, the time at which the peak concentration occurs) is listed as 0.083 h and the half-life (usually the time needed for the level to fall by half in the phase considered) is 2.03 h. In addition, the BA in data set [1] (oral 25 mg/kg vs intravenous 5 mg/kg) is given as 10.72%. In addition, in [1] (oral, 25 mg/kg), the “AUC (0-∞)” value was 445.18 ng·h/mL, the “AUC(0-t)” value is 431.49 ng·h/mL, the Cmax is reported as 63.3 ng/mL and the time to peak (Tmax) is on record as 2 h. Besides, the half-life in [1] (oral, 25 mg/kg) is on record as 4.77 h.
Consider `COCCNc1ccc2ncc(C#Cc3cccc(C(=O)Nc4cc(Cl)cc(C(F)(F)F)c4)c3C)n2n1` [XS3-135, N-(3-CHLORO-5-(TRIFLUOROMETHYL)PHENYL)-3-((6-((2-METHOXYETHYL)AMINO)IMIDAZO[1,2-B] PYRIDAZIN-3-YL)ETHYNYL)-2-METHYLBENZAMIDE], for which the IC50 (usually the midpoint of a concentration-inhibition curve) against TRKA was in the range of 0.01 to 0.1 µM; on TRKB, 0.01 to 0.1 µM; against TRKC, 0.01 to 0.1 µM; on BaF3-CD74-NTRK1, 0.1 to 1 µM; at BaF3-ETV6-NTRK2, 0.1 to 1 µM; at BaF3-ETV6-NTRK3 it was 0.01 to 0.1 µM.
For the compound `Cc1c(C#Cc2cnc3ccc(N4CCN(C5COC5)CC4)nn23)cccc1C(=O)Nc1cc(Cl)cc(C(F)(F)F)c1` [XS3-138, N-(3-CHLORO-5-(TRIFLUOROMETHYL)PHENYL)-2-METHYL-3-((6-(4-(OXETAN-3-YL)PIPERAZINE)-1-YL)IMIDAZO[1,2-B]PYRIDAZIN-3-YL)ETHYNYL)BENZAMIDE], the concentration for half-maximal inhibition (IC50) against TRKA was 0.01 to 0.1 µM; against TRKB, below 0.01 µM; on TRKC it was below 0.01 µM; on BaF3-CD74-NTRK1, 0.01 to 0.1 µM; at BaF3-ETV6-NTRK2, 0.01 to 0.1 µM; on BaF3-ETV6-NTRK3, below 0.01 µM.
For the compound `Cc1c(C#Cc2cnc3ccc(NCCCCO)nn23)cccc1C(=O)Nc1cc(Cl)cc(C(F)(F)F)c1` [XS3-139, N-(3-CHLORO-5-(TRIFLUOROMETHYL)PHENYL)-3-((6-((4-HYDROXYBUTYL)AMINO)IMIDAZO[1,2-B]PYRIDAZINE-3-YL)ETHYNYL)-2-METHYLBENZAMIDE], the IC50 on TRKA, against TRKB, at TRKC, on BaF3-CD74-NTRK1, on BaF3-ETV6-NTRK2 and on BaF3-ETV6-NTRK3 was 0.01 to 0.1 µM in each case.
For the compound `Cc1c(C#Cc2cnc3ccc(N4CCC(C)(O)CC4)nn23)cccc1C(=O)Nc1cc(Cl)cc(C(F)(F)F)c1` [XS3-153, N-(3-CHLORO-5-(TRIFLUOROMETHYL)PHENYL)-3-(6-(4-HYDROXY-4-METHYLPIPERIDIN-1-YL)IMIDAZO[1,2-B]PYRIDAZIN-3-YL)ETHYNYL)-2-METHYLBENZAMIDE], the IC50 at TRKA, against TRKB, at TRKC, on BaF3-CD74-NTRK1, on BaF3-ETV6-NTRK2 and at BaF3-ETV6-NTRK3 was 0.01 to 0.1 µM throughout.
`COc1cc(NC(=O)c2cccc(C#Cc3cnc4ccc(N5CCOCC5)nn34)c2C)cc(C(F)(F)F)c1` [XS4-72]: the IC50 against TRKA was 0.01 to 0.1 µM; against TRKB, 0.01 to 0.1 µM; on TRKC it was 0.01 to 0.1 µM; on BaF3-CD74-NTRK1, 0.01 to 0.1 µM; on BaF3-ETV6-NTRK2, 0.01 to 0.1 µM; on BaF3-ETV6-NTRK3, below 0.01 µM.
Regarding `Cc1c(C#Cc2cnc3ccc(N4CCOCC4)nn23)cccc1C(=O)Nc1cc(C(F)(F)F)cc(C(F)(F)F)c1` [XS4-76], the IC50 against TRKA, on TRKB, against TRKC, at BaF3-CD74-NTRK1, on BaF3-ETV6-NTRK2 and at BaF3-ETV6-NTRK3 was 0.01 to 0.1 µM in each case.
Turning to `Cc1c(C#Cc2cnc3ccc(N4CCOCC4)nn23)cccc1C(=O)Nc1cc([N+](=O)[O-])cc(C(F)(F)F)c1` [XS4-77], the IC50 against TRKA was 0.01 to 0.1 µM; at TRKB, 0.01 to 0.1 µM; at TRKC, 0.01 to 0.1 µM; on BaF3-CD74-NTRK1, 0.01 to 0.1 µM; on BaF3-ETV6-NTRK2 it was 0.01 to 0.1 µM; on BaF3-ETV6-NTRK3 it was below 0.01 µM.
For the compound `Cc1ccc(C(=O)Nc2cc(Cl)cc(C(F)(F)F)c2)cc1C#Cc1cnc2ccc(N3CCC(O)CC3)nn12` [XS4-128, N-(3-Chloro-5-(trifluoromethyl)phenyl)-3-((6-(4-hydroxypiperidin-1-yl)imidazo[1,2-B]pyridazine-3-yl)ethynyl)-4-methylbenzamide, reference compound], the IC50 turned out to be 0.129 µM against Bcr-Abl; 0.0203 µM against SRC; 0.0107 µM against RET; 0.0189 µM against VEGFR2; 0.0935 µM against Kit; 0.0199 µM against PDGFRA. On PDGFRB, this compound registered an IC50 of 0.119 µM.
In the case of `Cc1c(C#Cc2cnc3cccnn23)cccc1C(=O)Nc1cc(CN2CCN(C)CC2)cc(C(F)(F)F)c1` [XS116], the IC50 against TRKA fell in the range of 0.01 to 0.1 µM; at TRKB it was 0.01 to 0.1 µM; against TRKC, 0.01 to 0.1 µM; on BaF3-CD74-NTRK1 it was 0.1 to 1 µM; at BaF3-ETV6-NTRK2, 0.1 to 1 µM; on BaF3-ETV6-NTRK3, 0.1 to 1 µM.

The values are drawn from patent US11834454B2, “Alkynylphenylbenzamide compounds and applications thereof” (SHENZHEN NEWDEL BIOTECH CO., LTD., priority 2021, dated 2023).
